Read-outs that look alike come from different tables or passages of the source.
Key:
plasma insulin = assay: Plasma insulin at 24 h after OGTT in lean male SPD rats; type: in vivo, Sprague-Dawley (SPD) rats; conditions: non-significant
Description: (§1) Evaluation of the Acute Effects of Compound a and Compound B Upon Active GLP-1 wconcentrations during an oral glucose tolerance test (OGTT) and at 24 h in lean male SPD Rats
(§2) To establish the acute effects of oral administration of Compound A and Compound B upon active GLP-1 and insulin concentrations, lean (about 300 g) male Sprague-Dawley (SPD) rats were divided into groups (n=6-8) and fed 74 and 84 mg/kg body weight of Compound A or Compound B respectively, either with or without concurrent administration of a dipeptidyl peptidase 4 (DPP-4) inhibitor 60 minutes prior to an oral glucose tolerance test (OGTT) as outlined below. Parallel groups receiving either corn oil alone (corn oil+vehicle, n=10) or corn oil and a DPP-4 inhibitor (“DPP-4 i”) (corn oil+(DPP-4 i), n=10) were included as controls. The DPP-4 inhibitor was linagliptin.
(§3) A second oral dose of 74 and 84 mg/kg bodyweight of Compound A or Compound B respectively was administered at 240 minutes and ad lib feeding was initiated. A second dose of DPP-4 inhibitor was administered at 480 mins prior to lights out. Blood samples were collected at 24 h for measurement of active GLP-1 and insulin. All values are mean, figures depict mean values (SEM).

[1] = test system: ob/ob mice, rodent model of T2DM; assay: Oral glucose (2 g/kg) tolerance test after 5 weeks of treatment in ob/ob mice; type: in vivo; conditions: 15, 45 and 135 mg/kg bw/d
Description: Mice were fed a standard low-fat (7% w/w fat) diet. After 4-weeks, the mice were fasted for 4 hours and the effects of Compound A were assessed. Assessment of the effects of Compound A included basal levels of blood glucose, plasma insulin, HbA1c levels, and homeostatic model assessment of insulin resistance (HOMA-IR). HOMA-IR is an assessment of insulin resistance and is calculated by the following formula: fasting insulin (micro U/L)×fasting glucose […]/22.5.
After 5 weeks, an oral glucose (2 g/kg) tolerance test was performed after a 4 hour fast.

active GLP-1 = assay: Active GLP-1 during an oral glucose tolerance test (OGTT) and at 24 h in lean male SPD rats; type: in vivo, Sprague-Dawley (SPD) rats
Description: as §1, §2, §3

atherogenic lipids [2] = conditions: humans; cited from earlier work
[3] = test system: ob/ob mice, T2DM rodent model; assay: Glucose tolerance after 21-day treatment in high-fat diet fed ob/ob mice; type: in vivo; conditions: 112 mg/kg once daily via diet, 21 days
Description: This study was carried out to assess the effects of chronic treatment with Compound B or Compound A on glucose tolerance in a T2DM rodent model.
For assessing the effects of Compound A, ob/ob mice were fed a high-fat diet (comprising 2% cholesterol, 40% fat (containing 18% trans-fatty acids), 20% fructose) for 15 weeks starting at age 5 weeks. […] After 21 days the mice received a 2 g/kg oral glucose load. After the oral glucose load, plasma glucose was measured at multiple time points from 0-240 minutes.

atherogenic lipids [4] = conditions: APOE*3.CETP mice; cited from earlier work

## CC/C=C\C/C=C\C/C=C\C/C=C\C/C=C\CCCCOC(CC)C(=O)O (stereo not shown) [Compound A, 2-(((5Z,8Z,11Z,14Z,17Z)-icosa-5,8,11,14,17-pentaen-1-yl)oxy)butanoic acid]
Plasma insulin; compound alone
  increase of plasma insulin concentrations at 24 h versus corn oil+vehicle and corn oil+DPP4 inhibitor: 25%
Plasma insulin; in combination with DPP4 inhibitor (linagliptin)
  increase of plasma insulin concentrations at 24 h versus corn oil+vehicle and corn oil+DPP4 inhibitor: 25%
[1]
  glucose levels in oral glucose tolerance test: dose-dependent response in lowering glucose levels
Active GLP-1; in combination with DPP4 inhibitor (linagliptin), Compound A 74 mg/kg, Compound B 84 mg/kg, two oral doses
  active GLP-1 concentrations at 24 h versus corn oil+vehicle: significantly (p<0.05) increased
Atherogenic lipids [2]
  atherogenic lipids: significantly reduce atherogenic lipids
[3]; 2 g/kg oral glucose load
  glucose tolerance compared to vehicle: significantly improved glucose tolerance from 15 minutes through 90 minutes
[3]; p<0.01
  AUC glucose: significantly reduced
Atherogenic lipids [4]
  atherogenic lipids: significantly reduce atherogenic lipids

## CC#CCn1c(N2CCC[C@@H](N)C2)nc2c1c(=O)n(Cc1nc(C)c3ccccc3n1)c(=O)n2C [DPP4 inhibitor, linagliptin, reference compound]
Active GLP-1; corn oil+DPP4 inhibitor alone
  active GLP-1 (AUC 0-60 mins) versus corn oil alone: no significant effect
  active GLP-1 concentrations at 24 h versus corn oil alone: no significant effect
